Target: T1, mutated beta-galactosidase (p.R60H canine GLB1) in GM11473 fibroblasts (Canis lupus familiaris, UniProt Q9TRY9, R60H)
T1 construct: host or cells: GM11473 canine GM1 gangliosidosis fibroblasts
T1 sequence (Q9TRY9 30-668 R60H): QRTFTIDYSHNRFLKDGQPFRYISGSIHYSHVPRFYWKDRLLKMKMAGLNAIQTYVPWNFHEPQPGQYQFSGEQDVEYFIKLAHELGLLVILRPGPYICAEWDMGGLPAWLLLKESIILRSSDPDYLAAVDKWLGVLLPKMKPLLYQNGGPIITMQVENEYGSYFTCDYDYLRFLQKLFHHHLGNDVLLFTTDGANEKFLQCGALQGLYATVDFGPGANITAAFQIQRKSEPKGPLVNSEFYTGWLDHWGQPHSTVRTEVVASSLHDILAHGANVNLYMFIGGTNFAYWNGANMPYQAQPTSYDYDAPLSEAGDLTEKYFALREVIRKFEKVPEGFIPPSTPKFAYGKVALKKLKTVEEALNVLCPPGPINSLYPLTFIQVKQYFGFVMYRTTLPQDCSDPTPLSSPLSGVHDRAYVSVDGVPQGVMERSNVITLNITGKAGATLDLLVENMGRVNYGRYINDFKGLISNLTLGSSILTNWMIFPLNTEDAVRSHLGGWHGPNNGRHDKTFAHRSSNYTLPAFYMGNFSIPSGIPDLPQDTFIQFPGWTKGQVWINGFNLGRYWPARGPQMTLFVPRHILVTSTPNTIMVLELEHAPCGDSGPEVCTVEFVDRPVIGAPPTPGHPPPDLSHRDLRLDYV
Assay: Enhancement of β-galactosidase activity measured in GM1 fibroblasts (GM11473), 4-MU-β-D-galactopyranoside substrate
Assay type: cell-based
Design: key: Increase in comparison with non-treated of >2.5 fold is shown as A; Increase in comparison with non-treated of >1.7-2.5 fold is shown as B; Increase in comparison with non-treated of 1.2-1.7 fold is shown as C; D means that no increase compared with non-treated cells was detected in this method
Conditions: increase in β-galactosidase enzyme activity vs non-treated cells, concentrations between 6 and 50 μM, 4 days incubation
Procedure: The capacity of the Compounds of the Disclosure to enhance mutated beta-galactosidase activity levels in GM1 fibroblasts was assayed as follows.
Fibroblasts homozygous for a GM1 gangliosidosis missense mutation (GM11473) (canine fibroblasts homozygous for the GM1 gangliosidosis missense mutation p.R60H equivalent to human p.R59H mutation) were purchased from Coriell Institute for Medical Research (Camden, N.J., USA).
Fibroblasts were seeded at 4×10^4 cells per well in 12-well cell culture plates in Dulbecco's Modified Eagle's Media (DMEM) supplemented with 10% of fetal bovine serum (FBS), 1% penicillin/streptomycin (P/S) (Thermo Fisher Scientific, Waltham, Mass., USA) and incubated at 37° C., 5% CO2 overnight for cell attachment. Subsequently, cells were incubated in the absence or presence of the compounds at the desired concentration for 4 days. After incubation, cells were washed twice with phosphate-buffered saline (“PBS”) and detached using Trypsin-EDTA solution (Sigma Aldrich, St. Louis, Mo., USA) to prepare cell pellets. The pellets were stored at −80° C. until activity assays were performed.
β-Galactosidase activity in cell lysates was measured by using 4-Methylumbelliferyl-β-D-galactopyranoside substrate (Sigma Aldrich, St. Louis, Mo., USA). Briefly, lysates were resuspended in 200 μL of 0.9% NaCl containing 0.01% triton X-100 lysis buffer to promote membrane disruption. The cell suspension was sonicated and centrifuged to remove insoluble materials. Then, lysates were mixed with 4-MU-β-D-galactopyranoside in 100 mM citrate buffer (pH=4) and 100 mM NaCl for 60 min at 37° C. The reaction was terminated by adding 100 mM glycine-NaOH buffer (pH=10.7). The liberated 4-MU was measured on a GloMax Discover plate reader (Promega, Madison, Wis., USA) with excitation at 340 nm and emission at 460 nm. Protein quantification was determined using Pierce BCA Protein Assay Kit (Thermo Fisher Scientific, Waltham, Mass., USA). Measurements were interpolated in a 4-MU standard curve and normalized by protein quantity. Enzyme activities were expressed in treated cells as X-fold increase in comparison with non-treated cells (X=1 represents no enhancement).
The capacity of the Compounds of the Disclosure to produce an increase in β-galactosidase enzyme activity in canine GM1 fibroblasts bearing p.R60H canine GLB1 mutation at concentrations between 6 and 50 μM is denoted as follows: • Increase in comparison with non-treated of >2.5 fold is shown as A. • Increase in comparison with non-treated of >1.7-2.5 fold is shown as B. • Increase in comparison with non-treated of 1.2-1.7 fold is shown as C. • D means that no increase compared with non-treated cells was detected in this method. • ND means “not determined.”

SMILES	Activity in GM11473 fibroblasts
Cn1nnc2cc(NC(=O)c3cccc(Nc4nccc5ccc(Cl)cc45)c3)ccc21 [Example 1, 3-((7-Chloroisoquinolin-1-yl)amino)-N-(1-methyl-1H-benzo[d][1,2,3]triazol-5-yl)benzamide]	C (Increase in comparison with non-treated of 1.2-1.7 fold is shown as C)
O=C(NCC(c1ccccn1)N1CCOCC1)c1cccc(Nc2nccc3ccc(Cl)cc23)c1 (centres unmarked) [Example 2, 3-((7-Chloroisoquinolin-1-yl)amino)-N-(2-morpholino-2-(pyridin-2-yl)ethyl)benzamide]	C (Increase in comparison with non-treated of 1.2-1.7 fold is shown as C)
O=C(NCc1ccc2c(c1)OCCO2)c1cccc(Nc2nccc3ccc(Cl)cc23)c1 [Example 3, 3-((7-Chloroisoquinolin-1-yl)amino)-N-((2,3-dihydrobenzo[b][1,4]dioxin-6-yl)methyl)benzamide]	C (Increase in comparison with non-treated of 1.2-1.7 fold is shown as C)
O=C(NCc1ccccc1)c1cccc(Nc2nccc3ccc(Cl)cc23)c1 [Example 4, N-benzyl-3-((7-chloroisoquinolin-1-yl)amino)benzamide]	D
O=C(NCc1ccc2c(c1)OCCO2)c1ccc(Nc2nccc3ccc(Cl)cc23)cc1 [Example 5, 4-((7-Chloroisoquinolin-1-yl)amino)-N-((2,3-dihydrobenzo[b][1,4]dioxin-6-yl)methyl)benzamide]	B (Increase in comparison with non-treated of >1.7-2.5 fold is shown as B)
O=C(NCC(c1cccnc1)N1CCCC1)c1ccc(Nc2nccc3ccc(Cl)cc23)cc1 (centres unmarked) [Example 6, 4-((7-Chloroisoquinolin-1-yl)amino)-N-(2-(pyridin-3-yl)-2-(pyrrolidin-1-yl)ethyl)benzamide]	D
O=C(NCC(c1cccnc1)N1CCCC1)c1cc(Nc2nccc3ccc(Cl)cc23)ccn1 (centres unmarked) [Example 7, 4-((7-Chloroisoquinolin-1-yl)amino)-N-(2-(pyridin-3-yl)-2-(pyrrolidin-1-yl)ethyl)picolinamide]	C (Increase in comparison with non-treated of 1.2-1.7 fold is shown as C)
O=C(NCc1ccc2c(c1)OCCO2)c1cc(Nc2nccc3ccc(Cl)cc23)ccn1 [Example 8, 4-((7-Chloroisoquinolin-1-yl)amino)-N-((2,3-dihydrobenzo[b][1,4]dioxin-6-yl)methyl)picolinamide]	B (Increase in comparison with non-treated of >1.7-2.5 fold is shown as B)
O=C(NCc1ccccc1)c1cc(Nc2nccc3ccc(Cl)cc23)ccn1 [Example 9, N-benzyl-4-((7-chloroisoquinolin-1-yl)amino)picolinamide]	B (Increase in comparison with non-treated of >1.7-2.5 fold is shown as B)
COc1ccc(CNC(=O)c2cc(Nc3nccc4ccc(Cl)cc34)ccn2)cc1 [Example 10, 4-((7-Chloroisoquinolin-1-yl)amino)-N-(4-methoxybenzyl)picolinamide]	D
COc1cccc(CNC(=O)c2cc(Nc3nccc4ccc(Cl)cc34)ccn2)c1 [Example 11, 4-((7-Chloroisoquinolin-1-yl)amino)-N-(3-methoxybenzyl)picolinamide]	B (Increase in comparison with non-treated of >1.7-2.5 fold is shown as B)
COc1ccc(CNC(=O)c2cc(Nc3nccc4ccc(Cl)cc34)ccn2)cc1OC [Example 12, 4-((7-Chloroisoquinolin-1-yl)amino)-N-(3,4-dimethoxybenzyl)picolinamide]	C (Increase in comparison with non-treated of 1.2-1.7 fold is shown as C)
O=C(NCc1ccc2nsnc2c1)c1cc(Nc2nccc3ccc(Cl)cc23)ccn1 [Example 13, N-(benzo[c][1,2,5]thiadiazol-5-ylmethyl)-4-((7-chloroisoquinolin-1-yl)amino)picolinamide]	D
O=C(NC1CCc2ccccc2C1)c1cc(Nc2nccc3ccc(Cl)cc23)ccn1 (centres unmarked) [Example 14, 4-((7-Chloroisoquinolin-1-yl)amino)-N-(1,2,3,4-tetrahydronaphthalen-2-yl)picolinamide]	B (Increase in comparison with non-treated of >1.7-2.5 fold is shown as B)
O=C(NCc1ccc2c(c1)OCCCO2)c1cc(Nc2nccc3ccc(Cl)cc23)ccn1 [Example 15, 4-((7-Chloroisoquinolin-1-yl)amino)-N-((3,4-dihydro-2H-benzo[b][1,4]dioxepin-7-yl)methyl)picolinamide]	D
O=C(NCc1ccc2c(c1)CCO2)c1cc(Nc2nccc3ccc(Cl)cc23)ccn1 [Example 16, 4-((7-Chloroisoquinolin-1-yl)amino)-N-((2,3-dihydrobenzofuran-5-yl)methyl)picolinamide]	C (Increase in comparison with non-treated of 1.2-1.7 fold is shown as C)
O=C(NCc1ccc2c(c1)OCO2)c1cc(Nc2nccc3ccc(Cl)cc23)ccn1 [Example 17, N-(benzo[d][1,3]dioxol-5-ylmethyl)-4-((7-chloroisoquinolin-1-yl)amino)picolinamide]	B (Increase in comparison with non-treated of >1.7-2.5 fold is shown as B)
O=C(NCCc1ccc2c(c1)OCCO2)c1cc(Nc2nccc3ccc(Cl)cc23)ccn1 [Example 18, 4-((7-Chloroisoquinolin-1-yl)amino)-N-(2-(2,3-dihydrobenzo[b][1,4]dioxin-6-yl)ethyl)picolinamide]	C (Increase in comparison with non-treated of 1.2-1.7 fold is shown as C)
O=C(NCc1ccc2c(c1)CCCO2)c1cc(Nc2nccc3ccc(Cl)cc23)ccn1 [Example 19, 4-((7-Chloroisoquinolin-1-yl)amino)-N-(chroman-6-ylmethyl)picolinamide]	C (Increase in comparison with non-treated of 1.2-1.7 fold is shown as C)
O=C(NCC1CCc2ccccc2C1)c1cc(Nc2nccc3ccc(Cl)cc23)ccn1 (centres unmarked) [Example 20, 4-((7-Chloroisoquinolin-1-yl)amino)-N-((1,2,3,4-tetrahydronaphthalen-2-yl)methyl)picolinamide]	B (Increase in comparison with non-treated of >1.7-2.5 fold is shown as B)
COc1ccc2ccnc(Nc3ccnc(C(=O)NCc4ccc5c(c4)OCCO5)c3)c2c1 [Example 25, N-((2,3-dihydrobenzo[b][1,4]dioxin-6-yl)methyl)-4-((7-methoxyisoquinolin-1-yl)amino)picolinamide]	C (Increase in comparison with non-treated of 1.2-1.7 fold is shown as C)
COc1ccc2ccnc(Nc3ccnc(C(=O)NCc4ccccc4)c3)c2c1 [Example 26, N-benzyl-4-((7-methoxyisoquinolin-1-yl)amino)picolinamide]	C (Increase in comparison with non-treated of 1.2-1.7 fold is shown as C)
O=C(NCc1ccc2c(c1)OCCO2)c1ccc(Nc2nccc3ccc(Cl)cc23)cn1 [Example 28, 5-((7-Chloroisoquinolin-1-yl)amino)-N-((2,3-dihydrobenzo[b][1,4]dioxin-6-yl)methyl)picolinamide]	B (Increase in comparison with non-treated of >1.7-2.5 fold is shown as B)

From patent US11440898B2, “Isoquinoline compounds, methods for their preparation, and therapeutic uses thereof in conditions associated with the alteration of the activity of beta galactosidase” (Minoryx Therapeutics S.L., priority 2016, dated 2022)
